Experimental data reported in ChEMBL document CHEMBL2413012, “Inhibition of tumor-associated human carbonic anhydrase isozymes IX and XII by a new class of substituted-phenylacetamido aromatic sulfonamides” (Bioorg Med Chem, 2013).

These molecules were tested against Carbonic anhydrase 12 (Homo sapiens, UniProt O43570) (assay: Inhibition of human recombinant carbonic anhydrase 12 preincubated for 10 mins by CO2 hydration stopped-flow assay).
Chain of Carbonic anhydrase 12 (O43570 whole entry): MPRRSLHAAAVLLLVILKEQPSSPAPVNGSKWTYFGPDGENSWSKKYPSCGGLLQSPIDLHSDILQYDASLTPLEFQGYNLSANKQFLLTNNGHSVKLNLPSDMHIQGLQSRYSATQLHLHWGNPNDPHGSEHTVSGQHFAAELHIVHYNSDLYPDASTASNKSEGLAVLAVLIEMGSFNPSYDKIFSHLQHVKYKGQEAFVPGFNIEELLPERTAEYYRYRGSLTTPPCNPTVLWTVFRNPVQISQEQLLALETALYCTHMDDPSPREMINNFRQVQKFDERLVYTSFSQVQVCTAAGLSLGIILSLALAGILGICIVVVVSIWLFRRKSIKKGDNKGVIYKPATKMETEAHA

Ki	Structure (SMILES)
0.43 nM	COc1ccc(CC(=O)NCCc2ccc(S(N)(=O)=O)cc2)cc1
3.4 nM	NS(=O)(=O)c1ccc(CCNC(=O)Cc2ccc(Cl)cc2)cc1

These molecules were tested against Carbonic anhydrase 9 (Homo sapiens, UniProt Q16790) (assay: Inhibition of human recombinant carbonic anhydrase 9 preincubated for 10 mins by CO2 hydration stopped-flow assay).

Ki	Structure (SMILES)
0.25 nM	COc1ccc(CC(=O)NCCc2ccc(S(N)(=O)=O)cc2)cc1
1.2 nM	NS(=O)(=O)c1ccc(CCNC(=O)Cc2ccc(Cl)cc2)cc1
1.2 nM	NS(=O)(=O)c1ccc(NC(=O)Cc2ccc(Cl)cc2)c(Br)c1
0.52 nM	NS(=O)(=O)c1ccc(NC(=O)Cc2ccccc2Br)c(Br)c1
0.62 nM	COc1ccc(CC(=O)Nc2ccc(S(N)(=O)=O)cc2Br)cc1
0.53 nM	NS(=O)(=O)c1ccc(CNC(=O)Cc2ccc(Cl)cc2)cc1
1 nM	NS(=O)(=O)c1ccc(CNC(=O)Cc2ccccc2Br)cc1
0.45 nM	COc1ccc(CC(=O)NCc2ccc(S(N)(=O)=O)cc2)cc1
6.5 nM	NS(=O)(=O)c1ccc(CCNC(=O)Cc2ccc(F)cc2)cc1
0.57 nM	NS(=O)(=O)c1ccc(CCNC(=O)Cc2ccccc2Br)cc1
2.1 nM	NS(=O)(=O)c1nnc(NC(=O)Cc2ccc(F)cc2)s1
1.3 nM	NS(=O)(=O)c1nnc(NC(=O)Cc2ccc(Cl)cc2)s1
0.61 nM	NS(=O)(=O)c1nnc(NC(=O)Cc2ccccc2Br)s1
0.31 nM	COc1ccc(CC(=O)Nc2nnc(S(N)(=O)=O)s2)cc1
4.7 nM	NS(=O)(=O)c1ccc(NC(=O)Cc2ccc(F)cc2)cc1
72.5 nM	NS(=O)(=O)c1ccc(NC(=O)Cc2ccc(Cl)cc2)cc1
0.44 nM	NS(=O)(=O)c1ccc(NC(=O)Cc2ccccc2Br)cc1
0.32 nM	COc1ccc(CC(=O)Nc2ccc(S(N)(=O)=O)cc2)cc1
7.2 nM	NS(=O)(=O)c1ccc(NC(=O)Cc2ccc(F)cc2)c(F)c1
7.8 nM	NS(=O)(=O)c1ccc(NC(=O)Cc2ccc(Cl)cc2)c(F)c1
1.6 nM	NS(=O)(=O)c1ccc(NC(=O)Cc2ccccc2Br)c(F)c1
1.8 nM	COc1ccc(CC(=O)Nc2ccc(S(N)(=O)=O)cc2F)cc1
10.1 nM	NS(=O)(=O)c1ccc(NC(=O)Cc2ccc(F)cc2)c(Cl)c1
6.3 nM	NS(=O)(=O)c1ccc(NC(=O)Cc2ccc(Cl)cc2)c(Cl)c1
0.74 nM	NS(=O)(=O)c1ccc(NC(=O)Cc2ccccc2Br)c(Cl)c1
0.41 nM	COc1ccc(CC(=O)Nc2ccc(S(N)(=O)=O)cc2Cl)cc1
5 nM	NS(=O)(=O)c1ccc(NC(=O)Cc2ccc(F)cc2)c(Br)c1
